Data: US7238213B2, “Cell-based assays employing voltage and calcium dyes” (priority 2001, dated 2007)
Converted amounts (≈) assume the structure as drawn. “Also recorded” adds a separate entry of the source. Like-named read-outs stand apart in the source and are kept apart here.

Experiments:
[1] = Solubility in water of dye quenchers; conditions: for solubility: water, Solubility in Water
[2] = molecular target: T1, GCGR (Homo sapiens, UniProt P47871); experiment: CNG channel voltage dye assay with quencher dyes, cell line ASC0089 (GCGR); assay type: cell-based; conditions: for Cell response to glucagon in the presence of the quencher dye: ASC0089, HLB30602 5 μM, 1 h at room temperature, FIG. 19; for Effect of quencher on glucagon potency: compared with other quenchers and MDC dye kit, FIG. 21, 22
T1 construct: expressed in transfected cells
T1 sequence (P47871 26-477, species assumed): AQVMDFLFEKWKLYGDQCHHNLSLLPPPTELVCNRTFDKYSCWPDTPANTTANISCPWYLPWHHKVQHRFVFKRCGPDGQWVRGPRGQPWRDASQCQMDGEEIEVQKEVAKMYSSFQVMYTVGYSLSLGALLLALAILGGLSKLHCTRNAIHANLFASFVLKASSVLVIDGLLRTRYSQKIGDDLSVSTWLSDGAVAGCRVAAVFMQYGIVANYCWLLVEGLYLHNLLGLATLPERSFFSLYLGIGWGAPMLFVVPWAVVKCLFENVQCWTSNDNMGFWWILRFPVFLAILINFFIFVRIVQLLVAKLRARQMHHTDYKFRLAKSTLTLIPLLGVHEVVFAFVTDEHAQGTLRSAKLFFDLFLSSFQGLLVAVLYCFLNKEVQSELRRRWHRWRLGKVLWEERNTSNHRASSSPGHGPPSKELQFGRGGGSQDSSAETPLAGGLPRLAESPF

[3] = molecular target: T2, A2B (Homo sapiens, UniProt P29275); experiment: CNG channel voltage dye assay with quencher dyes, cell line ASC0097 (A2B); assay type: cell-based; conditions: FIG. 20
T2 construct: endogenous in cells
T2 sequence (P29275 1-332): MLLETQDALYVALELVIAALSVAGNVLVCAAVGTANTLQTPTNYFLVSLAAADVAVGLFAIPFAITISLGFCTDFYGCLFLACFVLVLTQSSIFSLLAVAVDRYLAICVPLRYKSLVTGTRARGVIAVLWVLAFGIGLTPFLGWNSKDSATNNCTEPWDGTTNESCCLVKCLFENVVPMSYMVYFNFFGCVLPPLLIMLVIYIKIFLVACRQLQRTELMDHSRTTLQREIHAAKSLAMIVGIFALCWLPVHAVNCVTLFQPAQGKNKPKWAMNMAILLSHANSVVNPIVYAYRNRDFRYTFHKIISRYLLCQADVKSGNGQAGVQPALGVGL

[4] = system: cell membranes; experiment: Effect of EGTA in extracellular assay solution on baseline voltage dye fluorescence; assay type: cell-based; conditions: CNG channel without pore mutation
[5] = system: 20 ligand-receptor pairs; conditions: quenchers for fluorescent voltage dyes
[6] = molecular target: T3, DP (Homo sapiens, UniProt Q13258); experiment: CNG channel voltage dye assay with quencher dyes, cell line ASC0093 (DP); assay type: cell-based
T3 construct: expressed in transfected cells; host or cells: cell line ASC0093 (CNG sensor line)
T3 sequence (Q13258 1-359): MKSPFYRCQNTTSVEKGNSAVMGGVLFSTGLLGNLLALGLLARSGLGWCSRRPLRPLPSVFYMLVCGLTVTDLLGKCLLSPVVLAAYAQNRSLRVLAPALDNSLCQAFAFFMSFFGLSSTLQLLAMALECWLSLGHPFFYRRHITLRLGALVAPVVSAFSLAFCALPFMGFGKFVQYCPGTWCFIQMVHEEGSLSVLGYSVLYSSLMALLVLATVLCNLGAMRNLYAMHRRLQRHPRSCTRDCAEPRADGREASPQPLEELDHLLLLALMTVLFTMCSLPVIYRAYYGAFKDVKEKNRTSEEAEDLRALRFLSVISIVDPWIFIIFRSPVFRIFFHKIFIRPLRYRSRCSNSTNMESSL

[7] = CNG channel voltage dye assay with quencher dyes, cell line ASC0097 (EP2); conditions: NY & H30602
[8] = system: stably transformed cells expressing a CNG channel gene; experiment: CNG channel endpoint assay, 384 well, FLEXstation; assay type: cell-based; conditions: 30 μM, 90 minutes after stimulation
Procedure: The CNG channel assay can also be used to perform endpoint assays. Decay of fluorescence responses results from desensitization of CNG channel was effectively removed by chelating extracellular calcium by EGTA and supplementing inhibitors of phosphodiesterase. Stably transformed cells expressing a CNG channel gene were seeded into 384 well plates and grown as described in previous examples. Forskolin was dissolved at a final concentration of 30 μM in Compound Buffer containing EGTA. Fluorescence intensity values of cells incubated with forskolin or with Compound Buffer only were read using FLEXstation (Molecular Devices) at different time points after forskolin stimulation.

[9] = CNG channel voltage dye assay with quencher dyes, cell line ASC0089 (Cyclase)
[10] = system: tyramine receptor; experiment: Tyramine receptor activation, CNG channel assay with membrane potential dye; assay type: cell-based; conditions: HEK293 transient, FIG. 16
Procedure: In this example, activation of the tyramine receptor was examined using the CNG channel assay and compared with calcium fluorescence assays using Gα16 and Gαqs. Similar amounts of plasmids comprising CNG channel, Gα16 or Gαqs were used for transient expression in HEK293 cells also transiently expressing tyramine receptor. Calcium assays were performed following the protocol provided by Molecular Devices. For each concentration of tyramine, three recordings were made to obtain an average response in cells expressing Gα16, Gαqs and CNG channel respectively.

[11] = molecular target: T4, VIP2R (Homo sapiens, UniProt P41587); experiment: CNG channel voltage dye assay with quencher dyes, cell line ASC0145 (VIP2R); assay type: cell-based; conditions: ASC0145, compared with MDC dye kit R-8034, FIG. 23
T4 construct: expressed in transfected cells; host or cells: cell line ASC0145 (CNG sensor line)
T4 sequence (P41587 24-438): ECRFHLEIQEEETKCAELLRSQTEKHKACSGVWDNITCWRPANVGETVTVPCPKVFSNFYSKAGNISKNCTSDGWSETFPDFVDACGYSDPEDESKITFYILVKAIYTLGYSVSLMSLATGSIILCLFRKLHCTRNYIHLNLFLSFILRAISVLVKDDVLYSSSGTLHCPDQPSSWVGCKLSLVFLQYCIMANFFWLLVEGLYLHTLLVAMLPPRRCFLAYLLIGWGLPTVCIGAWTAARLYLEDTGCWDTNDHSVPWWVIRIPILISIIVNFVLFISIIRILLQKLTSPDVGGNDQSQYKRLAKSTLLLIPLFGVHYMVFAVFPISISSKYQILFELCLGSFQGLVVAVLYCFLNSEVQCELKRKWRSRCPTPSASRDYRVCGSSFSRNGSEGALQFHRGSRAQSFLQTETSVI

[12] = molecular target: T5, GIPR (Homo sapiens, UniProt P48546); experiment: CNG channel voltage dye assay with quencher dyes, cell line ASC0133 (GIPR); assay type: cell-based; conditions: ASC0133, compared with MDC dye kit R-8034, FIG. 24
T5 construct: expressed in transfected cells; host or cells: cell line ASC0133 (CNG sensor line)
T5 sequence (P48546 22-466): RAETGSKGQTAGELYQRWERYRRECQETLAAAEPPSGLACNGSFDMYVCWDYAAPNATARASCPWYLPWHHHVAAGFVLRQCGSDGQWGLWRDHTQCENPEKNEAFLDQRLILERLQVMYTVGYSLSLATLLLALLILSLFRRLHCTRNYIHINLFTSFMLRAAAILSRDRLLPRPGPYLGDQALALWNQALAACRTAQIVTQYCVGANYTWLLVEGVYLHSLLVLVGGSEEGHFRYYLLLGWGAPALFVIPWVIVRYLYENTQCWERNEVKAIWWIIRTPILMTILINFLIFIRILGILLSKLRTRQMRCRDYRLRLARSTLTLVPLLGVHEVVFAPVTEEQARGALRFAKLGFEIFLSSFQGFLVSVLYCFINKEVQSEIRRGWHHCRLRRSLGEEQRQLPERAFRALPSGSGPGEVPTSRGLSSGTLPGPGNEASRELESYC

[13] = molecular target: MC1R (Homo sapiens, UniProt Q01726); conditions: cell line ASC0179
Sequence of MC1R (Q01726 whole entry, species assumed): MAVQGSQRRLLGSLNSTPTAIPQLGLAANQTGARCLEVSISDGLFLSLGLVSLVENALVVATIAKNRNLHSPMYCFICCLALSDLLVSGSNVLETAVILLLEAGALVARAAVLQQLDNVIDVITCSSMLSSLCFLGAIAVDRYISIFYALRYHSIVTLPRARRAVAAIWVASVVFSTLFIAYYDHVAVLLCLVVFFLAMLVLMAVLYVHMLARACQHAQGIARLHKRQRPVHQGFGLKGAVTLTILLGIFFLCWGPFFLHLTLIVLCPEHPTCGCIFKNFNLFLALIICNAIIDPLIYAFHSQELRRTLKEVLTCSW

## O=S(=O)([O-])c1cc(O)c2c(/N=N/c3ccc(Nc4ccccc4)c4c(S(=O)(=O)[O-])cccc34)cc(S(=O)(=O)[O-])cc2c1.[Na+].[Na+].[Na+] [Acid Blue 92]
[1]
  Solubility in Water: 40 mg/mL

## O=S(=O)([O-])c1cccc(N=Nc2ccc(N=Nc3ccc(Nc4ccccc4)c4c(S(=O)(=O)[O-])cccc34)c3ccccc23)c1.[Na+].[Na+] [Acid Blue 113]
[1]
  Solubility in Water: 40 mg/mL

## CCN(CC)c1ccc(C(=C2C=CC(=[N+](CC)Cc3cccc(S(=O)(=O)[O-])c3)C=C2)c2ccc(N(CC)Cc3cccc(S(=O)(=O)[O-])c3)cc2)cc1.[Na+] [Acid Violet 17]
[2]
  Cell response to glucagon in the presence of the quencher dye: abolished
[1]
  Solubility in Water: 30 mg/mL

## O.O=C1c2ccccc2C(=O)c2c1cc(S(=O)(=O)[O-])c(O)c2O.[Na+] [Alizarin Red S monohydrate]
[1]
  Solubility in Water: 20 mg/mL

## CC(=O)Nc1ccc(S(=O)(=O)[O-])c2cc(S(=O)(=O)[O-])c(N=Nc3ccc(N=Nc4ccc(S(=O)(=O)[O-])cc4)c4ccc(S(=O)(=O)[O-])cc34)c(O)c12.[Na+].[Na+].[Na+].[Na+] [Brilliant Black BN]
[1]
  Solubility in Water: 30 mg/mL

## O=S1(=O)OC(c2cc(Cl)c(O)c(Br)c2)(c2cc(Cl)c(O)c(Br)c2)c2ccccc21 [Bromochlorophenol Blue]
[1]
  Solubility in Water: 20 mg/mL (≈ 34.4 mM)

## O=S1(=O)OC(c2cc(Br)c(O)c(Br)c2)(c2cc(Br)c(O)c(Br)c2)c2ccccc21 [Bromophenol Blue]
[2]; FIG. 21
  Interference of quencher with response to glucagon stimulation: interfered
[3]
  Suitability of quencher for assay of adenosine receptor A2B responses to NECA: reduced NECA response without affecting NECA potency
[1]
  Solubility in Water: 30 mg/mL (≈ 44.8 mM)

## O=c1c(Br)cc2c(-c3ccccc3S(=O)(=O)O)c3cc(Br)c(O)c(O)c3oc-2c1O [Bromopyrogallol Red]
[1]
  solubility: 5 mg/mL (≈ 8.96 mM)

## O=S1(=O)OC(c2ccc(O)c(Cl)c2)(c2ccc(O)c(Cl)c2)c2ccccc21 [Chlorophenol Red]
[1]
  Solubility in Water: 30 mg/mL (≈ 70.9 mM)

## O=C(O)CN(CCOCCOCCN(CC(=O)O)CC(=O)O)CC(=O)O [EGTA]
[4]
  fluorescence increase over baseline: about 40%

## Cc1cc(-c2ccc(/N=N/c3c(S(=O)(=O)O)cc4cc(S(=O)(=O)O)cc(N)c4c3O)c(C)c2)ccc1/N=N/c1c(S(=O)(=O)O)cc2cc(S(=O)(=O)O)cc(N)c2c1O [HLB30702 (Trypan Blue), Trypan Blue]
[2]; FIG. 21
  Interference of quencher with response to glucagon stimulation: interfered
[3]
  Suitability of quencher for assay of adenosine receptor A2B responses to NECA: suitable
[1]
  Solubility in Water: >20 mg/mL

## CCN(CC)c1ccc2nc3ccc(N)cc3[n+](-c3ccccc3)c2c1.[Cl-] [Methylene Violet 3Rax]
[1]
  Solubility in Water: 10 mg/mL

## CC1=CC(=C(c2ccc(N)c(C)c2)c2ccc(N)c(C)c2)C=CC1=N.Cl [New Fuchsin]
[1]
  Solubility in Water: 20 mg/mL

## Nc1c(N=Nc2ccc([N+](=O)[O-])cc2)c(S(=O)(=O)[O-])cc2cc(S(=O)(=O)[O-])cc(O)c12.[Na+].[Na+] [Nitro Red]
[1]
  Solubility in Water: 40 mg/mL
[5]
  effect of quencher on responses of peptides and other small organic molecules: little effect

## CCCCC[C@H](O)/C=C/[C@H]1C(=O)C[C@H](O)[C@@H]1C/C=C\CCCC(=O)O [PGD2, Prostaglandin D2]
[6]; MDC dye
  EC50: 0.018 nM
  maximal response Fmax/Fb: 4.4
[6]; NY & H30602
  EC50: 0.0078 nM
  maximal response Fmax/Fb: 4.2

## CCCCC[C@H](O)/C=C/[C@H]1[C@H](O)CC(=O)[C@@H]1CCCCCCC(=O)O [PGE1, Prostaglandin E1]
[7]
  EC50: 40 nM
  maximal response Fmax/Fb: 5.3

## O=S(=O)([O-])c1cc(O)c(N=Nc2c(O)ccc3ccccc23)c2ccccc12.[Na+] [Palatine Chrome Black 6BN (Calcon)]
[1]
  Solubility in Water: 30 mg/mL

## Cc1cc(-c2ccc(/N=N/c3c(S(=O)(=O)O)cc4cc(S(=O)(=O)O)cc(N)c4c3O)c(C)c2)ccc1/N=N/c1c(S(=O)(=O)O)cc2cc(S(=O)(=O)O)cc(N)c2c1O [Trypan Blue (Fluka), Trypan Blue]
[2]; FIG. 21
  Effect of quencher on maximal responses to glucagon: did not inhibit maximal responses
  Interference of quencher with response to glucagon stimulation: interfered
[2]; listed as Trypan blue
  Effect of quencher on glucagon potency: reduced glucagon potency by about one order
[2]; listed as trypan blue
  Effect of quencher on glucagon potency: significantly reduced glucagon potency
[3]
  Suitability of quencher for assay of adenosine receptor A2B responses to NECA: suitable
[1]
  solubility: ~10 mg/mL (≈ 11.5 mM)

## C=C[C@@]1(C)CC(=O)[C@]2(O)[C@@]3(C)[C@@H](O)CCC(C)(C)[C@@H]3[C@H](O)[C@H](OC(C)=O)[C@@]2(C)O1 [forskolin]
[8]
  increase of fluorescence intensity versus buffer control: 2.8 fold
[8]; n=192
  fluorescence intensity: 5.3±0.5×10^5 RFU
[9]; MDC dye
  EC50: 230 nM
  maximal response Fmax/Fb: 5.3
[9]; NY & H30602
  EC50: 160 nM
  maximal response Fmax/Fb: 5.1

## NCCc1ccc(O)cc1 [tyramine]
[10]
  tyramine receptor activation: detectable

## DIAZINE BLACK
[2]
  Cell response to glucagon in the presence of the quencher dye: abolished

## Direct Violet 51
[1]
  Solubility in Water: 20 mg/mL

## Nitrazine Yellow
[2]
  Effect of quencher on glucagon potency: Glucagon potency increased
[11]
  Effect of quencher on VIP potency: left-shifted by about one order of magnitude; also recorded: increased using nitrazine yellow as a quencher by more than one order
[12]
  Effect of quencher on GIP potency: left-shifted by about one order of magnitude; also recorded: increased using nitrazine yellow as a quencher by one order
[1]
  Solubility in Water: 20 mg/mL
[5]
  effect of quencher on responses of peptides and other small organic molecules: little effect

## Sulfonazo II
[1]
  Solubility in Water: 40 mg/mL

## α-MSH
[13]; MDC dye
  maximal response Fmax/Fb: 5
[13]; TB & H30602
  maximal response Fmax/Fb: 5.1
